Measured values taken from EPA's ToxValDB 9.5 (doi:10.2903/j.efsa.2020.6338).

Key:
Bovidae = conditions: subchronic; duration: 42 days; oral; diet; M; no effects
Gallus gallus = conditions: subchronic; duration: 36 days; oral; diet; M; Chicken; no effects
Sus scrofa = conditions: subchronic; duration: 42 days; oral; diet; M/F; Not specified; no effects

| LEL (Bovidae) | LEL (Gallus gallus) | LEL (Sus scrofa) | Compound |
| --- | --- | --- | --- |
| 5 mg/kg-day | 5 mg/kg-day | 5 mg/kg-day | CC1CCC(C(C)(C)S)C(=O)C1 (configuration not stated) [p-Mentha-8-thiol-3-one] |
| 100 mg/kg-day | 100 mg/kg-day | 100 mg/kg-day | O=C1CCCCCCCCCCCCCCO1 [Pentadecan-15-olide] |
| 12 mg/kg-day | 12 mg/kg-day | 12 mg/kg-day | COc1ccc2ccccc2c1 [2-Methoxynaphthalene] |
| 318 mg/kg-day | 318 mg/kg-day | 318 mg/kg-day | CCCCCCC(=O)OCC [Ethyl heptanoate] |
| 300 mg/kg-day | 300 mg/kg-day | 300 mg/kg-day | C=CC(C)(O)CCC=C(C)C (configuration not stated) [Linalool] |
| 125 mg/kg-day | 125 mg/kg-day | 125 mg/kg-day | OCCc1ccccc1 [2-Phenylethanol] |
| 15 mg/kg-day | 15 mg/kg-day | 15 mg/kg-day | Cc1csc(C(C)C)n1 [2-Isopropyl-4-methylthiazole] |
| 300 mg/kg-day | 300 mg/kg-day | 300 mg/kg-day | CC(C)CC(=O)OCCc1ccccc1 [Phenethyl isovalerate] |
| 1250 mg/kg-day | 1250 mg/kg-day | 1250 mg/kg-day | CC(=O)OCCC(C)C [3-Methylbutyl acetate] |
